Structures are written as SMILES.

A short description of this experiment: Activation of BTN3A1 in human PBMC-derived Vgamma9Vdelta2 T cells assessed as induction of interleukin 2 stimulated cell proliferation by measuring increase in CD3 positive cells incubated for 3 days followed by 11 days incubation post compound wash out with subsequent stimulation with IL-2 every 3 days measured after 14 days by flow cytometr.
For `C/C(=C\CCP(=O)(O)Oc1ccccc1)CO`, the concentration giving a half-maximal response (EC50) was 870 nM.
As for `COP(=O)(CC/C=C(\C)CO)Oc1ccccc1` (configuration not stated), the figure is 33000 nM; as for `C/C(=C\CCP(=O)(COC(=O)C(C)(C)C)OCOC(=O)C(C)(C)C)CO` (configuration not stated), 5.4 nM.
As for `C/C(=C\CCP(=O)(COC(=O)C(C)(C)C)Oc1ccccc1)CO` (configuration not stated), the figure is 14 nM; as for `COP(=O)(CC/C=C(\C)CO)Oc1cccc2ccccc12` (configuration not stated), 5500 nM.
For `C/C(=C\CCP(=O)(COC(=O)C(C)(C)C)Oc1cccc2ccccc12)CO` (configuration not stated), the concentration giving a half-maximal response (EC50) worked out at 0.79 nM.
As for `C/C(=C\CCP(=O)(O)Oc1cccc2ccccc12)CO`, the figure is 610 nM.

For the origin of these results see BindingDB's records for doi:10.1021/acsmedchemlett.7b00245 (University of Iowa, 2017).
